“And” between values parts separate entries of the source, which are not always exact repeats. Equal values may be shown once. No end group written: not given here.
Tests used:
[1] = tested on: brine shrimp (Artemia salina); assay: Brine shrimp toxicity of Nisin formulations (Example 4); format: in vivo; settings: Nisin in citric acid buffer solution, reduced pH; data not shown
Description: This Example describes the efficacy of various Nisins: Nisin Z, Nisin A, and ImmuCell Nisin A. This experiment assessed the safety and antimicrobial efficacy of various Nisin formulations in treating Vibrio parahaemolyticus infections, a common pathogen in aquaculture environments. Brine shrimp (Artemia salina) were utilized as a model organism to simulate potential impacts on Pacific whiteleg shrimp (Penaeus vannamei).
Nisin variants (Nisin A, Nisin Z, and ImmuCell Nisin A) were dissolved in either citric acid buffer (CAB, pH 3.4) for Nisin A or dH2O for Nisin Z to make a stock solution of 4.86 mg/mL. Serial dilutions were performed to achieve the different concentrations (4.86 mg/mL to 0.005 mg/mL) for the experiments.
Artemia salina eggs were hatched in artificial seawater (Instant Ocean) under controlled conditions. Newly hatched brine shrimp were then exposed to varying concentrations of each Nisin solution in experimental tanks. A separate set of tanks was used for each type of Nisin formulation.
Control tanks (treated with either CAB or saline water) were prepared to observe the natural behavior and survival rate of Artemia salina without Nisin exposure.
Brine shrimp were divided into different tanks for exposure to varying concentrations (2.43 mg/mL, 0.608 mg/mL, 0.152 mg/mL, and 0.038 mg/mL) of Nisin A, Nisin Z, and ImmuCell Nisin A.
Mortality and behavior of the brine shrimp were recorded at 24 and 48 hours post-exposure. For the antimicrobial tests, the diameter of inhibition zones on agar plates containing the laboratory control strains were measured and recorded.

pathogenic Vibrio = assay: Minimum inhibitory concentration, all Vibrio species; format: cell-based; settings: all species of Vibrio
Description: (§1) This Example describes the materials and methods, and results of a serial dilution experiment to determine the Minimum Inhibitory Concentration (MIC) of Nisin in reducing a concentration of pathogenic Vibrio.
(§2) On the day before the experiment, Vibrio stock were prepared by sterilizing an inoculation loop, cooling the product, and extracting cells. Such extract was incubated at 37° C. for 16 to 20 hours. The density of cells was normalized to a cell density of approximately 10^7 to 10^8 CFU/mL and 100 uL lawns were prepared at a cell density of about 10^6 to 10^7 CFU using sterile glass beads. Four lawns were made so that each Nisin dilution could be tested on two identical plates.
(§3) 5 μL of two-fold dilutions (See Table 1, below) of Nisin (Immucell; 99% pure), or shrimp feed (without Nisin), citric acid, or DH20 negative controls, respectively, were spotted on the plates, which were incubated at 37° C. for 16 to 20 hours. The minimum inhibitory concentration was determined. In particular, plates were characterized based upon the presence (0) or absence (1) of Vibrio growth.

Vibrio alginolyticus = assay: Minimum inhibitory concentration by serial two-fold dilution spotted on Vibrio lawns; format: cell-based; settings: individual V. alginolyticus lines; 37° C., 16 to 20 hours
Description: as §1, §2, §3

Vibrio parahaemolyticus = assay: as above; format: cell-based; settings: individual V. parahaemolyticus lines; 37° C., 16 to 20 hours
Description: as §1, §2, §3

Vibrio cholerae = assay: as above; format: cell-based; settings: individual V. cholerae lines; 37° C., 16 to 20 hours
Description: as §1, §2, §3

Nisin: Nisin (Immucell; 99% pure) in Example 1; bacteriocin Nisin in shrimp feed at 0.84, 8.4 and 84 mg/g in Example 2 (ITSISLCTPGCKTGALMGCNMKTATCHCSIHVSK; cysteine pairing not given here; also: lantibiotic, modifications not placed; UniProt P13068 24-57, looked up)
cause of mortality in toxicity trials [1]: mortality that is not related to the peptide Nisin itself
MIC compared with negative control (pathogenic Vibrio): significantly smaller MIC than the negative control
MIC (Vibrio alginolyticus): 8.3 ug/mL and 66.1 ug/mL and 2,115.0 ug/mL and 0.01 wt/v % and 0.07 wt/v % and 2.12 wt/v %
MIC (Vibrio parahaemolyticus): 1,057.5 ug/mL and 33.1 ug/mL and 66.1 ug/mL and 528.8 ug/mL and 8.3 ug/mL and 1.06 wt/v % and 0.03 wt/v % and 0.07 wt/v % and 0.53 wt/v % and 0.01 wt/v %
MIC (Vibrio cholerae): 1,057.5 ug/mL and 8.3 ug/mL and 2,115.0 ug/mL and 132.2 ug/mL and 1.06 wt/v % and 0.01 wt/v % and 2.12 wt/v % and 0.13 wt/v %
